In patent publication US20240279218A1 (Hoffmann-La Roche Inc., priority 2016, published 2024):
Read-outs that look alike come from different tables or passages of the source.

Legend:
[1] = biological target: T1, h-GABA-A α5β3γ2 (Homo sapiens (Human), UniProt P18507+P31644); experiment: [3H]flumazenil competition binding assay, membranes of HEK293 cells expressing human GABAA receptors
Description: The affinity of compounds at GABAA receptor subtypes was measured by competition for [3H]flumazenil (85 Ci/mmol; Roche) binding to HEK293 cells expressing rat (stably transfected) or human (transiently transfected) receptors of composition α1β3γ2, α2β3γ2, α3β3γ2 and α5β3γ2.
Cell pellets were suspended in Krebs-tris buffer (4.8 mM KCl, 1.2 mM CaCl2, 1.2 mM MgCl2, 120 mM NaCl, 15 mM Tris; pH 7.5; binding assay buffer), homogenized by polytron for ca. 20 sec on ice and centrifuged for 60 min at 4° C. (50000 g; Sorvall, rotor: SM24=20000 rpm). The cell pellets were resuspended in Krebs-tris buffer and homogenized by polytron for ca. 15 sec on ice. Protein was measured (Bradford method, Bio-Rad) and aliquots of 1 mL were prepared and stored at −80° C.
Assays were incubated to equilibrium for 1 hour at 4° C. and harvested onto GF/C uni-filters (Packard) by filtration using a Packard harvester and washing with ice-cold wash buffer (50 mM Tris; pH 7.5). After drying, filter-retained radioactivity was detected by liquid scintillation counting. Ki values were calculated using Excel-Fit (Microsoft) and are the means of two determinations.

[2] = biological target: T1, h-GABA-A α5β3γ2; experiment: Two-electrode voltage clamp electrophysiology in Xenopus oocytes expressing GABAA receptors, modulation of GABA EC20 current; format: cell-based
Description: Xenopus laevis oocytes at maturation stages V-VI were used for the expression of cloned mRNA encoding GABAA receptor subunits. Oocytes ready for RNA micro-injection were bought from Ecocyte, Castrop-Rauxel, Germany and stored in modified Barth's medium (composition in mM: NaCl 88, KCl 1, NaHCO32.4, HEPES 10, MgSO4 0.82, CaNO3 0.33, CaCl2) 0.33, pH=7.5) at 20° C. until the experiment.
Oocytes were plated in 96-well plates to be used in an automated instrument (Robo-ocyte, MultiChannelSystems, Reutlingen, Germany) for microinjection and electrophysiological recordings. Approximately 50 nl of an aqueous solution containing the RNA transcripts for the subunits of the desired GABAA receptor was injected into each oocyte. RNA concentrations ranged between 0.3 and 16 ng/μl/subunit and were adjusted in pilot experiments to obtain GABA responses of a suitable size and a maximal effect of the reference modulator, Beta-CCM (β-CCM), a betacarboline negative allosteric modulator (NAM) at the GABAA receptor benzodiazepine (BZD) binding site or Midazolam, a benzodiazepine positive allosteric modulator (PAM) at the GABAA receptor benzodiazepine (BZD) binding site. The concentration of the γ2 subunit encoding RNA usually was 5-to 10-fold higher than the RNAs encoding the other subunits. Oocytes were kept in modified Barth's medium (composition in mM: NaCl 88, KCl 1, NaHCO3 4, HEPES 10, MgSO4 0.82, CaNO3 0.33, CaCl2 0.33, pH=7.5) at 20° C. until the experiment.
Electrophysiological experiments were performed on days 3 to 5 after the micro-injection of mRNA. During the experiment the oocytes were constantly superfused by a solution containing (in mM) NaCl 90, KCl 1, HEPES 5, MgCl2 1, CaCl2 1 (pH 7.4). Oocytes were impaled by two glass microelectrodes (resistance: 0.4 MΩ) which were filled with a solution containing KCl 1M+K-acetate 1.5 M and voltage-clamped to −80 mV. The recordings were performed at room temperature using the Roboocyte two-electrode voltage clamp system (Multichannelsystem). After an initial equilibration period of 1.5 min GABA was added for 1.5 min at a concentration evoking approximately 20% of a maximal current response (EC20). After another rest interval of 2.5 min GABA was again added evoking a response of similar amplitude and shape. […] Current traces were recorded at a digitization rate of 10 Hz during and shortly before and after the GABA application.
Each compound and concentration was tested on at least 3 oocytes.
For the analysis, the digitized current traces of the first and second GABA response were superimposed and, if necessary, rescaled to equal maximal amplitudes. The ratio between the two responses during the time interval of test compound application was calculated point by point. The extremum of the resulting “ratio trace” was taken as the efficacy (“Fold increase”) of the compound expressed as “% modulation of GABA EC20” (100*(Fold increase−1)).

[3] = displacement of [3H]flumazenil 0.5 nM, HEK293 cells expressing human receptors, mean of two determinations, read-out: Ki h-GABA-A α5β3γ2
[4] = % modulation of GABA EC20 = 100*(Fold increase−1), Xenopus oocytes
[5] = Xenopus oocytes, GABA EC20, test compound at approx. 30 fold its Ki

SMILES: CCOC(=O)C1(NC(=O)c2ccc(OCc3c(-c4ccc(C)nc4)noc3C)nn2)CC1 [Example 68, ethyl 1-(6-((5-methyl-3-(6-methylpyridin-3-yl)isoxazol-4-yl)methoxy)pyridazine-3-carboxamido)cyclopropanecarboxylate]
- Ki [1, 3]: 0.0562 µM
- Efficacy (GABA) % [2, 4]: 72%
- Fold increase h-GABA-A α5β3γ2 oocyte [2, 5]: 1.72

SMILES: Cc1ccc(-c2noc(C)c2COc2cc3c(cn2)C(=O)N(C2CCOCC2)C3)cn1 [Example 22, 6-((5-methyl-3-(6-methylpyridin-3-yl)isoxazol-4-yl)methoxy)-2-(tetrahydro-2H-pyran-4-yl)-1H-pyrrolo[3,4-c]pyridin-3(2H)-one]
- Ki [1, 3]: 0.0108 µM
- Efficacy (GABA) % [2, 4]: 44%
- Fold increase h-GABA-A α5β3γ2 oocyte [2, 5]: 1.44

SMILES: Cc1ccc(-c2noc(C)c2COc2ccc(C(=O)NC3(C)CCSCC3)nn2)cn1 [Example 110, 6-((5-methyl-3-(6-methylpyridin-3-yl)isoxazol-4-yl)methoxy)-N-(4-methyltetrahydrothiopyran-4-yl)pyridazine-3-carboxamide]
- Ki [1, 3]: 0.0155 µM
- Efficacy (GABA) % [2, 4]: 65%
- Fold increase h-GABA-A α5β3γ2 oocyte [2, 5]: 1.65

SMILES: Cc1ccc(-c2noc(C)c2COc2cnc(C(=O)NC3CCOC3)cn2)cn1 (stereo in doubt) [Example 92, (S)-5-((5-Methyl-3-(6-methylpyridin-3-yl)isoxazol-4-yl)methoxy)-N-(tetrahydrofuran-3-yl)pyrazine-2-carboxamide]
- Ki [1, 3]: 0.0132 µM
- Efficacy (GABA) % [2, 4]: 67%
- Fold increase h-GABA-A α5β3γ2 oocyte [2, 5]: 1.67

SMILES: Cc1ccc(-c2noc(C)c2COc2ccc(C(=O)NCC(F)(F)F)nn2)cn1 [Example 40, 6-((5-methyl-3-(6-methylpyridin-3-yl)isoxazol-4-yl)methoxy)-N-(2,2,2-trifluoroethyl)pyridazine-3-carboxamide]
- Ki [1, 3]: 0.0106 µM
- Efficacy (GABA) % [2, 4]: 91%
- Fold increase h-GABA-A α5β3γ2 oocyte [2, 5]: 1.91

SMILES: CO[C@H]1C[C@H](NC(=O)c2ccc(OCc3c(-c4ccc(C)nc4)noc3C)nn2)C1 [Example 163, trans-N-(3-methoxycyclobutyl)-6-((5-methyl-3-(6-methyl-3-pyridyl)isoxazol-4-yl)methoxy)pyridazine-3-carboxamide]
- Ki [1, 3]: 0.0086 µM
- Efficacy (GABA) % [2, 4]: 98%
- Fold increase h-GABA-A α5β3γ2 oocyte [2, 5]: 1.98

SMILES: Cc1ccc(-c2noc(C)c2COc2cnc(C(=O)NC3CC3)cn2)cn1 [Example 74, N-cyclopropyl-5-((5-methyl-3-(6-methyl-3-pyridyl)isoxazol-4-yl)methoxy)pyrazine-2-carboxamide]
- Ki [1, 3]: 0.0092 µM
- Efficacy (GABA) % [2, 4]: 28%
- Fold increase h-GABA-A α5β3γ2 oocyte [2, 5]: 1.28

SMILES: Cc1onc(-c2ccc(Cl)cn2)c1COc1ccc(C(=O)NC2CCOCC2)nn1 [RE-B, 6-((3-(5-chloro-2-pyridyl)-5-methyl-isoxazol-4-yl)methoxy)-N-tetrahydropyran-4-yl-pyridazine-3-carboxamide, reference compound]
- Ki ([1]; reference compounds, GABAA receptor α5β3γ2, read-out: Ki α5-human): 0.0004 µM
- Efficacy (GABA) % ([2]; reference compounds, % modulation of GABA EC20): +3%
- Fold increase h-GABA-A α5β3γ2 oocyte ([2]; reference compounds, GABAA α5β3γ2 overexpressing oocytes, GABA EC20): 1.03

SMILES: CO[C@H]1C[C@@H](NC(=O)c2ccc(OCc3c(-c4ccc(C)nc4)noc3C)nn2)C1 [Example 164, cis-N-(3-methoxycyclobutyl)-6-((5-methyl-3-(6-methyl-3-pyridyl)isoxazol-4-yl)methoxy)pyridazine-3-carboxamide]
- Ki [1, 3]: 0.0115 µM
- Efficacy (GABA) % [2, 4]: 95%
- Fold increase h-GABA-A α5β3γ2 oocyte [2, 5]: 1.95

SMILES: CCC[C@@H](CO)NC(=O)c1ccc(OCc2c(-c3cnc(C)c(F)c3)noc2C)nc1 [Example 145, 6-((3-(5-fluoro-6-methyl-3-pyridyl)-5-methyl-isoxazol-4-yl)methoxy)-N-((1S)-1-(hydroxymethyl)butyl)pyridine-3-carboxamide]
- Ki [1, 3]: 0.029 µM
- Efficacy (GABA) % [2, 4]: 144%
- Fold increase h-GABA-A α5β3γ2 oocyte [2, 5]: 2.44

SMILES: Cc1ccc(-c2noc(C)c2COc2ccc(C(=O)NCC3(C)COC3)nn2)cn1 [Example 49, 6-((5-methyl-3-(6-methylpyridin-3-yl)isoxazol-4-yl)methoxy)-N-((3-methyloxetan-3-yl)methyl)pyridazine-3-carboxamide]
- Ki [1, 3]: 0.0136 µM
- Efficacy (GABA) % [2, 4]: 70%
- Fold increase h-GABA-A α5β3γ2 oocyte [2, 5]: 1.7

SMILES: CO[C@H]1CC[C@@H](NC(=O)c2ccc(OCc3c(-c4ccc(C)nc4)noc3C)nn2)CC1 [Example 158, cis-N-(4-methoxycyclohexyl)-6-((5-methyl-3-(6-methylpyridin-3-yl)isoxazol-4-yl)methoxy)pyridazine-3-carboxamide]
- Ki [1, 3]: 0.0182 µM
- Efficacy (GABA) % [2, 4]: 79%
- Fold increase h-GABA-A α5β3γ2 oocyte [2, 5]: 1.79

SMILES: CCC[C@@H](CO)NC(=O)c1ccc(OCc2c(-c3ccc(C)nc3)noc2C2CC2)nc1 [Example 5, 6-((5-cyclopropyl-3-(6-methyl-3-pyridyl)isoxazol-4-yl)methoxy)-N-((1S)-1-(hydroxymethyl)butyl)pyridine-3-carboxamide]
- Ki [1, 3]: 0.0586 µM
- Efficacy (GABA) % [2, 4]: 245%
- Fold increase h-GABA-A α5β3γ2 oocyte [2, 5]: 3.45

SMILES: Cc1ccc(-c2noc(C)c2COc2ccc(C(=O)NC3(C)CCCC3)nn2)cn1 [Example 114, 6-((5-methyl-3-(6-methylpyridin-3-yl)isoxazol-4-yl)methoxy)-N-(1-methylcyclopentyl)pyridazine-3-carboxamide]
- Ki [1, 3]: 0.0281 µM
- Efficacy (GABA) % [2, 4]: 74%
- Fold increase h-GABA-A α5β3γ2 oocyte [2, 5]: 1.74

SMILES: COC1CN(C(=O)c2ccc(OCc3c(-c4ccc(C)nc4)noc3C)nn2)C1 [Example 55, (3-methoxyazetidin-1-yl)(6-((5-methyl-3-(6-methylpyridin-3-yl)isoxazol-4-yl)methoxy)pyridazin-3-yl)methanone]
- Ki [1, 3]: 0.0086 µM
- Efficacy (GABA) % [2, 4]: 57%
- Fold increase h-GABA-A α5β3γ2 oocyte [2, 5]: 1.57

SMILES: Cc1ccc(-c2noc(C)c2COc2ccc(C(=O)NC3CCOCC3)cn2)cn1 [Example 1, 6-((5-methyl-3-(6-methyl-3-pyridyl)isoxazol-4-yl)methoxy)-N-tetrahydropyran-4-yl-pyridine-3-carboxamide]
- Ki [1, 3]: 0.0048 µM
- Efficacy (GABA) % [2, 4]: 42%
- Fold increase h-GABA-A α5β3γ2 oocyte [2, 5]: 1.42

SMILES: COc1ccc(-c2noc(C)c2COc2ccc(C(=O)NC(C)C)cn2)cn1 [Example 138, N-isopropyl-6-((3-(6-methoxypyridin-3-yl)-5-methylisoxazol-4-yl)methoxy)pyridine-3-carboxamide]
- Ki [1, 3]: 0.0938 µM
- Efficacy (GABA) % [2, 4]: 46%
- Fold increase h-GABA-A α5β3γ2 oocyte [2, 5]: 1.46
